Values after ≈ are worked out from the molar mass of the structure shown.
What was measured:
Staphylococcus aureus [1] = test: Antibacterial activity against methicillin-sensitive Staphylococcus aureus 12-28 after 18 hrs by CLSI broth microdilution method; assay type: functional; conditions: 12-28, 18 h
[2] = system: Acinetobacter calcoaceticus; test: Antibacterial activity against Acinetobacter calcoaceticus ATCC 19606 after 18 hrs by CLSI broth microdilution method; assay type: functional; conditions: ATCC 19606, 18 h
Staphylococcus aureus [3] = test: Antibacterial activity against methicillin-resistant Staphylococcus aureus ATCC 33591 after 18 hrs by CLSI broth microdilution method; assay type: functional; conditions: ATCC 33591, 18 h
Escherichia coli [4] = test: Antibacterial activity against extended-spectrum beta-lactamase deficient Escherichia coli 12-14 after 18 hrs by CLSI broth microdilution method; assay type: functional; conditions: 12-14, 18 h
Providencia rettgeri = test: Antibacterial activity against Providencia rettgeri ATCC 31052 after 18 hrs by CLSI broth microdilution method; assay type: functional; conditions: ATCC 31052, 18 h
Escherichia coli [5] = test: Antibacterial activity against extended-spectrum beta-lactamase deficient Escherichia coli 1515 after 18 hrs by CLSI broth microdilution method; assay type: functional; conditions: Escherichia coli, 1515, 18 h
[6] = Cytotoxicity against HEK293T cells assessed as reduction in cell viability after 48 hrs by MTS assay; assay type: cell-based, HEK-293T; conditions: human
Escherichia coli [7] = test: Antibacterial activity against extended-spectrum beta-lactamase harboring Escherichia coli 12-15 after 18 hrs by CLSI broth microdilution method; assay type: functional; conditions: 12-15, 18 h
Klebsiella aerogenes = test: Antibacterial activity against Enterobacter aerogenes ATCC 13048 after 18 hrs by CLSI broth microdilution method; assay type: functional; conditions: ATCC 13048, 18 h
Escherichia coli [8] = test: Antibacterial activity against extended-spectrum beta-lactamase deficient Escherichia coli ATCC 25922 after 18 hrs by CLSI broth microdilution method; assay type: functional; conditions: ATCC 25922, 18 h
Enterococcus faecalis [9] = test: Antibacterial activity against vancomycin-resistant Enterococcus faecalis 09-9 after 18 hrs by CLSI broth microdilution method; assay type: functional; conditions: 09-9, 18 h
Staphylococcus aureus [10] = test: Antibacterial activity against methicillin-sensitive Staphylococcus aureus 15 after 18 hrs by CLSI broth microdilution method; assay type: functional; conditions: Staphylococcus aureus, 15, 18 h
Enterobacter cloacae = test: Antibacterial activity against Enterobacter cloacae ATCC 43560 after 18 hrs by CLSI broth microdilution method; assay type: functional; conditions: ATCC 43560, 18 h
Enterococcus faecalis [11] = test: Antibacterial activity against vancomycin-sensitive Enterococcus faecalis ATCC 29212 after 18 hrs by CLSI broth microdilution method; assay type: functional; conditions: ATCC 29212, 18 h
Klebsiella pneumoniae [12] = test: Antibacterial activity against extended-spectrum beta-lactamase deficient Klebsiella pneumoniae 12-4 after 18 hrs by CLSI broth microdilution method; assay type: functional; conditions: 12-4, 18 h
Pseudomonas aeruginosa [13] = test: Antibacterial activity against Pseudomonas aeruginosa ATCC 27853 after 18 hrs by CLSI broth microdilution method; assay type: functional; conditions: ATCC 27853, 18 h
Enterococcus faecium [14] = test: Antibacterial activity against vancomycin-resistant Enterococcus faecium 12-1 after 18 hrs by CLSI broth microdilution method; assay type: functional; conditions: 12-1, 18 h
Serratia marcescens = test: Antibacterial activity against Serratia marcescens ATCC 21074 after 18 hrs by CLSI broth microdilution method; assay type: functional; conditions: ATCC 21074, 18 h
[15] = system: Stenotrophomonas maltophilia; test: Antibacterial activity against Stenotrophomonas maltophilia ATCC 13636 after 18 hrs by CLSI broth microdilution method; assay type: functional; conditions: ATCC 13636, 18 h
Citrobacter freundii = test: Antibacterial activity against Citrobacter freundii ATCC 43864 after 18 hrs by CLSI broth microdilution method; assay type: functional; conditions: ATCC 43864, 18 h
Klebsiella pneumoniae [16] = test: Antibacterial activity against extended-spectrum beta-lactamase deficient Klebsiella pneumoniae 7 after 18 hrs by CLSI broth microdilution method; assay type: functional; conditions: Klebsiella pneumoniae, 7, 18 h
Klebsiella pneumoniae [17] = test: Antibacterial activity against extended-spectrum beta-lactamase harboring Klebsiella pneumoniae ATCC 700603 after 18 hrs by CLSI broth microdilution method; assay type: functional; conditions: Klebsiella pneumoniae, 700603, 18 h
[18] = system: Staphylococcus epidermidis; test: Antibacterial activity against methicillin-sensitive Staphylococcus epidermidis ATCC 12228 after 18 hrs by CLSI broth microdilution method; assay type: functional; conditions: ATCC 12228, 18 h
Enterococcus faecium [19] = test: Antibacterial activity against vancomycin-sensitive Enterococcus faecium 12-3 after 18 hrs by CLSI broth microdilution method; assay type: functional; conditions: 12-3, 18 h
Pseudomonas aeruginosa [20] = test: Antibacterial activity against Pseudomonas aeruginosa 12-16 after 18 hrs by CLSI broth microdilution method; assay type: functional; conditions: 12-16, 18 h
Klebsiella pneumoniae [21] = test: Antibacterial activity against extended-spectrum beta-lactamase harboring Klebsiella pneumoniae 12-8 after 18 hrs by CLSI broth microdilution method; assay type: functional; conditions: 12-8, 18 h
[22] = system: Staphylococcus epidermidis; test: Antibacterial activity against methicillin-resistant Staphylococcus epidermidis 12-8 after 18 hrs by CLSI broth microdilution method; assay type: functional; conditions: 12-8, 18 h
[23] = system: Staphylococcus epidermidis; test: Antibacterial activity against methicillin-sensitive Staphylococcus epidermidis 12-6 after 18 hrs by CLSI broth microdilution method; assay type: functional; conditions: 12-6, 18 h
Proteus vulgaris = test: Antibacterial activity against Proteus vulgaris ATCC 29905 after 18 hrs by CLSI broth microdilution method; assay type: functional; conditions: ATCC 29905, 18 h
Staphylococcus aureus [24] = test: Antibacterial activity against methicillin-resistant Staphylococcus aureus 12-33 after 18 hrs by CLSI broth microdilution method; assay type: functional; conditions: 12-33, 18 h
Enterococcus faecium [25] = test: Antibacterial activity against vancomycin-resistant Enterococcus faecium ATCC 700221 after 18 hrs by CLSI broth microdilution method; assay type: functional; conditions: ATCC 700221, 18 h
Pseudomonas aeruginosa [26] = test: Antibacterial activity against Pseudomonas aeruginosa PAO1 after 18 hrs by CLSI broth microdilution method; assay type: functional; conditions: PAO1, 18 h
Enterococcus faecalis [27] = test: Antibacterial activity against vancomycin-resistant Enterococcus faecalis ATCC 51299 after 18 hrs by CLSI broth microdilution method; assay type: functional; conditions: ATCC 51299, 18 h
Klebsiella pneumoniae [28] = test: Antibacterial activity against new delhi metallo-beta-lactamase-1 harboring Klebsiella pneumoniae ATCC BAA-2146 after 18 hrs by CLSI broth microdilution method; assay type: functional; conditions: ATCC BAA-2146, 18 h
Proteus mirabilis = test: Antibacterial activity against Proteus mirabilis 12-6 after 18 hrs by CLSI broth microdilution method; assay type: functional; conditions: 12-6, 18 h
Staphylococcus aureus [29] = test: Antibacterial activity against methicillin-sensitive Staphylococcus aureus ATCC 29213 after 18 hrs by CLSI broth microdilution method; assay type: functional; conditions: ATCC 29213, 18 h
Enterococcus faecalis [30] = test: Antibacterial activity against vancomycin-sensitive Enterococcus faecalis 12-5 after 18 hrs by CLSI broth microdilution method; assay type: functional; conditions: 12-5, 18 h

Row | SMILES | MIC (Staphylococcus aureus [1]) [mg/L] | MIC [2] [mg/L] | MIC (Staphylococcus aureus [3]) [mg/L] | MIC (Escherichia coli [4]) [mg/L] | MIC (Providencia rettgeri) [mg/L] | MIC (Escherichia coli [5]) [mg/L] | CC50 at 48 h [6] [mg/L] | MIC (Escherichia coli [7]) [mg/L] | MIC (Klebsiella aerogenes) [mg/L] | MIC (Escherichia coli [8]) [mg/L] | MIC (Enterococcus faecalis [9]) [mg/L] | MIC (Staphylococcus aureus [10]) [mg/L] | MIC (Enterobacter cloacae) [mg/L] | MIC (Enterococcus faecalis [11]) [mg/L] | MIC (Klebsiella pneumoniae [12]) [mg/L] | MIC (Pseudomonas aeruginosa [13]) [mg/L] | MIC (Enterococcus faecium [14]) [mg/L] | MIC (Serratia marcescens) [mg/L] | MIC [15] [mg/L] | MIC (Citrobacter freundii) [mg/L] | other results
1 | CNC(=N)c1ccc2cc(-c3cncc(-c4cc5ccc(C(=N)NC)cc5[nH]4)c3)[nH]c2c1 | > 64 | > 64 | > 64 | > 64 | > 64 | > 64 | > 100 | > 64 | > 64 | > 64 | > 64 | > 64 | > 64 | > 64 | > 64 | > 64 | > 64 | > 64 | > 64 | > 64 | MIC (Klebsiella pneumoniae [16]): > 64 mg/L; MIC (Klebsiella pneumoniae [17]): > 64 mg/L; MIC [18]: 4 mg/L (≈ 9.49 µM); MIC (Enterococcus faecium [19]): > 64 mg/L; MIC (Pseudomonas aeruginosa [20]): > 64 mg/L; MIC (Klebsiella pneumoniae [21]): > 64 mg/L; MIC [22]: 8 mg/L (≈ 19 µM); MIC [23]: 8 mg/L (≈ 19 µM); MIC (Proteus vulgaris): > 64 mg/L; MIC (Staphylococcus aureus [24]): > 64 mg/L; MIC (Enterococcus faecium [25]): > 64 mg/L; MIC (Pseudomonas aeruginosa [26]): > 64 mg/L; MIC (Enterococcus faecalis [27]): > 64 mg/L; MIC (Klebsiella pneumoniae [28]): > 64 mg/L; MIC (Proteus mirabilis): > 64 mg/L; MIC (Staphylococcus aureus [29]): > 64 mg/L; MIC (Enterococcus faecalis [30]): > 64 mg/L
2 | CCNC(=N)c1ccc2cc(-c3ccc(-c4cc5ccc(C(=N)NCC)cc5[nH]4)cc3)[nH]c2c1 | 1 (≈ 2.23 µM) | 64 (≈ 143 µM) | 1 (≈ 2.23 µM) | 16 (≈ 35.7 µM) | 32 (≈ 71.3 µM) | 32 (≈ 71.3 µM) | 4.1 (≈ 9.14 µM) | 16 (≈ 35.7 µM) | 16 (≈ 35.7 µM) | 8 (≈ 17.8 µM) | 2 (≈ 4.46 µM) | 1 (≈ 2.23 µM) | 16 (≈ 35.7 µM) | 1 (≈ 2.23 µM) | 16 (≈ 35.7 µM) | 8 (≈ 17.8 µM) | 1 (≈ 2.23 µM) | 32 (≈ 71.3 µM) | 8 (≈ 17.8 µM) | 16 (≈ 35.7 µM) | MIC (Klebsiella pneumoniae [16]): 16 mg/L (≈ 35.7 µM); MIC (Klebsiella pneumoniae [17]): 32 mg/L (≈ 71.3 µM); MIC [18]: 0.5 mg/L (≈ 1.11 µM); MIC (Enterococcus faecium [19]): 2 mg/L (≈ 4.46 µM); MIC (Pseudomonas aeruginosa [20]): 32 mg/L (≈ 71.3 µM); MIC (Klebsiella pneumoniae [21]): 32 mg/L (≈ 71.3 µM); MIC [22]: 1 mg/L (≈ 2.23 µM); MIC [23]: 1 mg/L (≈ 2.23 µM); MIC (Proteus vulgaris): 64 mg/L (≈ 143 µM); MIC (Staphylococcus aureus [24]): 1 mg/L (≈ 2.23 µM); MIC (Enterococcus faecium [25]): 1 mg/L (≈ 2.23 µM); MIC (Pseudomonas aeruginosa [26]): 32 mg/L (≈ 71.3 µM); MIC (Enterococcus faecalis [27]): 2 mg/L (≈ 4.46 µM); MIC (Klebsiella pneumoniae [28]): 32 mg/L (≈ 71.3 µM); MIC (Proteus mirabilis): > 64 mg/L; MIC (Staphylococcus aureus [29]): 1 mg/L (≈ 2.23 µM); MIC (Enterococcus faecalis [30]): 2 mg/L (≈ 4.46 µM)

— ChEMBL document CHEMBL4229379, “Synthesis and structure-activity relationship of novel bisindole amidines active against MDR Gram-positive and Gram-negative bacteria” (Eur J Med Chem, 2018)
